From patent US20240083857A1, “2-Methyl-Quinazolines” (Bayer Pharma Aktiengesellschaft, priority 2017, published 2024)

Key:
[1] = target: human SOS1 (nucleotide exchange of K-Ras^G12C) (Homo sapiens, UniProt Q07889); experiment: Biochemical assay 2: K-Ras^G12C activation assay by hSOS1 at high GTP concentration (HTRF); conditions: high GTP; for inhibition at 20 µM: read-out: Assay 2 (KRAS-Activation by SOS high GTP) activity expressed as % inhibition at 20 μM; for IC50: read-out: Assay 2 (KRAS-Activation by SOS high GTP) activity expressed as IC50
[2] = target: K-Ras^G12C : hSOS1 interaction (Homo sapiens, UniProt Q07889); experiment: Biochemical assay 1: K-Ras^G12C interaction assay with hSOS1 (HTRF); assay type: binding; conditions: for inhibition at 20 µM: read-out: Assay 1 (KRAS-SOS Interaction) activity expressed as % inhibition at 20 μM; for IC50: read-out: Assay 1 (KRAS-SOS Interaction) activity expressed as IC50
[3] = target: human SOS1 (loading of human K-Ras^G12C-GDP with fluorescent GTP-analog) (Homo sapiens, UniProt Q07889); experiment: Biochemical assay 3: K-Ras^G12C activation assay by hSOS1 (HTRF); conditions: no GTP; for inhibition at 20 µM: read-out: Assay 3 (KRAS-Activation by SOS no GTP) activity expressed as % inhibition at 20 μM; for IC50: read-out: Assay 3 (KRAS-Activation by SOS no GTP) activity expressed as IC50

## COc1cc2nc(C)nc(N[C@H](C)c3cccc(-c4ccccc4OCc4ccccc4)c3)c2cc1OC [Example 81, N-{(1R)-1-[2′-(benzyloxy)biphenyl-3-yl]ethyl}-6,7-dimethoxy-2-methylquinazolin-4-amine]
[1]
  inhibition at 20 µM: 33%
[2]
  inhibition at 20 µM: 42%
[3]
  inhibition at 20 µM: 24%

## COc1cc2nc(C)nc(N[C@H](C)c3cccc(-c4ccc(S(C)(=O)=O)cc4)c3)c2cc1OC [Example 82, 6,7-dimethoxy-2-methyl-N-{(1R)-1-[4′-(methylsulfonyl)biphenyl-3-yl]ethyl}quinazolin-4-amine]
[1]
  IC50: 857 nM
[2]
  IC50: 598 nM
[3]
  IC50: 1 µM

## COc1cc2nc(C)nc(N[C@H](C)c3cccc(-c4ccccc4OC(F)(F)F)c3)c2cc1OC [Example 83, 6,7-dimethoxy-2-methyl-N-{(1R)-1-[2′-(trifluoromethoxy)biphenyl-3-yl]ethyl}quinazolin-4-amine]
[1]
  IC50: 7850 nM
[2]
  IC50: 8500 nM
[3]
  IC50: 17.4 µM

## COc1cc2nc(C)nc(N[C@H](C)c3cccc(-c4cccc(OC(F)(F)F)c4)c3)c2cc1OC [Example 84, 6,7-dimethoxy-2-methyl-N-{(1R)-1-[3′-(trifluoromethoxy)biphenyl-3-yl]ethyl}quinazolin-4-amine]
[1]
  IC50: 7200 nM
[2]
  IC50: 5330 nM
[3]
  IC50: 11 µM

## COc1cc2nc(C)nc(N[C@H](C)c3cccc(-c4ccc5[nH]ccc5c4)c3)c2cc1OC [Example 85, N-{(1R)-1-[3-(1H-indol-5-yl)phenyl]ethyl}-6,7-dimethoxy-2-methylquinazolin-4-amine]
[1]
  IC50: 756 nM
[2]
  IC50: 687 nM
[3]
  IC50: 1.26 µM

## COc1cc2nc(C)nc(N[C@H](C)c3cccc(-c4ccoc4)c3)c2cc1OC [Example 86, N-{(1R)-1-[3-(furan-3-yl)phenyl]ethyl}-6,7-dimethoxy-2-methylquinazolin-4-amine]
[1]
  IC50: 935 nM
[2]
  IC50: 581 nM
[3]
  IC50: 0.693 µM

## COc1cc2nc(C)nc(N[C@H](C)c3cccc(-c4csc5ccccc45)c3)c2cc1OC [Example 87, N-{(1R)-1-[3-(1-benzothiophen-3-yl)phenyl]ethyl}-6,7-dimethoxy-2-methylquinazolin-4-amine]
[1]
  IC50: 3460 nM
[2]
  IC50: 4420 nM
[3]
  IC50: 7.42 µM

## COc1cc2nc(C)nc(N[C@H](C)c3cccc(-c4cc5ccccc5n4C)c3)c2cc1OC [Example 88, 6,7-dimethoxy-2-methyl-N-{(1R)-1-[3-(1-methyl-1H-indol-2-yl)phenyl]ethyl}quinazolin-4-amine]
[1]
  IC50: 2560 nM
[2]
  IC50: 3560 nM
[3]
  IC50: 6.18 µM

## CCC/C=C/c1cccc([C@@H](C)Nc2nc(C)nc3cc(OC)c(OC)cc23)c1 [Example 89, 6,7-dimethoxy-2-methyl-N-[(1R)-1-{3-[(1E)-pent-1-en-1-yl]phenyl}ethyl]quinazolin-4-amine]
[1]
  IC50: 2680 nM
[2]
  IC50: 1680 nM
[3]
  IC50: 4.26 µM

## COc1cc2nc(C)nc(N[C@H](C)c3cccc(/C=C/C4CCCCC4)c3)c2cc1OC [Example 90, N-[(1R)-1-{3-[(E)-2-cyclohexylethenyl]phenyl}ethyl]-6,7-dimethoxy-2-methylquinazolin-4-amine]
[1]
  inhibition at 20 µM: 46%
[2]
  IC50: 11000 nM
[3]
  inhibition at 20 µM: 33%

## COc1cc2nc(C)nc(N[C@H](C)c3cccc(-c4ccccc4Oc4ccccc4)c3)c2cc1OC [Example 91, 6,7-dimethoxy-2-methyl-N-[(1R)-1-(2′-phenoxybiphenyl-3-yl)ethyl]quinazolin-4-amine]
[1]
  inhibition at 20 µM: 36%
[2]
  IC50: 15000 nM
[3]
  inhibition at 20 µM: 38%

## COc1cc2nc(C)nc(N[C@H](C)c3cccc(-c4ccc(NC(=O)OC(C)(C)C)cc4)c3)c2cc1OC [Example 92, tert-butyl (3′-{(1R)-1-[(6,7-dimethoxy-2-methylquinazolin-4-yl)amino]ethyl}biphenyl-4-yl)carbamate]
[1]
  IC50: 3670 nM
[2]
  IC50: 4700 nM
[3]
  IC50: 9.26 µM

## COc1cc2nc(C)nc(N[C@H](C)c3cccc(-c4cccc(/C=C/C#N)c4)c3)c2cc1OC [Example 93, (2E)-3-(3′-{(1R)-1-[(6,7-dimethoxy-2-methylquinazolin-4-yl)amino]ethyl}biphenyl-3-yl)prop-2-enenitrile]
[1]
  IC50: 1580 nM
[2]
  IC50: 1850 nM
[3]
  IC50: 2.89 µM

## COc1cc2nc(C)nc(N[C@H](C)c3cccc(-c4ccc(C)cc4C)c3)c2cc1OC [Example 94, N-[{1R)-1-(2′,4′-dimethylbiphenyl-3-yl)ethyl]-6,7-dimethoxy-2-methylquinazolin-4-amine]
[1]
  IC50: 3140 nM
[2]
  IC50: 2420 nM
[3]
  IC50: 4.28 µM

## COc1cc2nc(C)nc(N[C@H](C)c3cccc(-c4ccc(C(C)=O)s4)c3)c2cc1OC [Example 95, 1-[5-(3-{(1R)-1-[(6,7-dimethoxy-2-methylquinazolin-4-yl)amino]ethyl}phenyl)thiophen-2-yl]ethanone]
[1]
  IC50: 473 nM
[2]
  IC50: 801 nM
[3]
  IC50: 1.08 µM

## COc1cc2nc(C)nc(N[C@H](C)c3cccc(-c4ccc5c(c4)OCO5)c3)c2cc1OC [Example 96, N-{(1R)-1-[3-(1,3-benzodioxol-5-yl)phenyl]ethyl}-6,7-dimethoxy-2-methylquinazolin-4-amine]
[1]
  IC50: 1090 nM
[2]
  IC50: 1040 nM
[3]
  IC50: 1.39 µM

## COc1cc2nc(C)nc(N[C@H](C)c3cccc(-c4ccc(OCc5ccccc5)cc4)c3)c2cc1OC [Example 97, N-{(1R)-1-[4′-(benzyloxy)biphenyl-3-yl]ethyl}-6,7-dimethoxy-2-methylquinazolin-4-amine]
[1]
  inhibition at 20 µM: 28%
[2]
  inhibition at 20 µM: 39%
[3]
  inhibition at 20 µM: 38%

## COc1cccc(-c2cccc([C@@H](C)Nc3nc(C)nc4cc(OC)c(OC)cc34)c2)c1 [Example 99, 6,7-dimethoxy-N-[(1R)-1-(3′-methoxybiphenyl-3-yl)ethyl]-2-methylquinazolin-4-amine]
[1]
  IC50: 1420 nM
[2]
  IC50: 2180 nM
[3]
  IC50: 2.63 µM

## COc1cc2nc(C)nc(N[C@H](C)c3cccc(-c4cccc(C(F)(F)F)c4)c3)c2cc1OC [Example 100, 6,7-dimethoxy-2-methyl-N-{(1R)-1-[3′-(trifluoromethyl)biphenyl-3-yl]ethyl}quinazolin-4-amine]
[1]
  IC50: 4510 nM
[2]
  IC50: 5350 nM
[3]
  IC50: 8.52 µM

## COc1cc2nc(C)nc(N[C@H](C)c3cccc(-c4ccccc4S(=O)(=O)N(C)C)c3)c2cc1OC [Example 101, 3′-{(1R)-1-[(6,7-dimethoxy-2-methylquinazolin-4-yl)amino]ethyl}-N,N-dimethylbiphenyl-2-sulfonamide]
[1]
  IC50: 897 nM
[2]
  IC50: 715 nM
[3]
  IC50: 1.8 µM

## CCCOc1ccccc1-c1cccc([C@@H](C)Nc2nc(C)nc3cc(OC)c(OC)cc23)c1 [Example 102, 6,7-dimethoxy-2-methyl-N-[(1R)-1-(2′-propoxybiphenyl-3-yl)ethyl]quinazolin-4-amine]
[1]
  IC50: 3560 nM
[2]
  IC50: 6380 nM
[3]
  IC50: 11.5 µM

## COc1cc2nc(C)nc(N[C@H](C)c3cccc(-c4ccccc4C(=O)N(C)C)c3)c2cc1OC [Example 103, 3′-{(1R)-1-[(6,7-dimethoxy-2-methylquinazolin-4-yl)amino]ethyl}-N,N-dimethylbiphenyl-2-carboxamide]
[1]
  IC50: 2480 nM
[2]
  IC50: 1440 nM
[3]
  IC50: 2.74 µM
